Assay [1] has as its system FLO-1 (Esophageal Adenocarcinoma). In words: Bliss excess, mean over the matrix (fraction); higher = more synergy. The method, boiled down: (§1)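 Cell lines grown in DMEM/F12 or RPMI with 10% FBS were plated in 1536-well plates and held 24 hours at 37°C, 5% CO2 before 72 hours of exposure to two-drug dose matrices, with DMSO typically at 0.2%. CellTiter-Glo 2.0 luminescence gave viability, which was converted to inhibition. Vehicle wells were set to 0 and blank wells to 1. Combination Emax is the second-highest inhibition in the matrix, and Bliss excess is the observed combination effect minus the expected EA + EB − EA·EB, where EA and EB are the single-agent effects.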

Assay [2] concerns NCI-H1755 (Lung Adenocarcinoma). The assay is described as above. The method, boiled down:
as §1

For assay [3], the system named is ES-2 (Ovarian Carcinoma). The assay is described as above. A digest of the protocol: as §1
The test system of assay [4] is CHL-1 (Melanoma). The assay is described as above. The method, boiled down: as §1
Assay [5] deals with LAMA-84 (Chronic Myelogenous Leukemia). The description is as above. The method, boiled down: as §1
The test system of assay [6] is EB-3 (Burkitt's Lymphoma). The assay is described as above. A digest of the protocol: as §1
For assay [7], the system named is LOUCY (T-Lymphoblastic Leukemia). Described as above. A digest of the protocol: as §1
Assay [8] deals with CML-T1 (Chronic Myelogenous Leukemia). Described as above. The method, boiled down:
as §1

The test system of assay [9] is OV-90 (Ovarian Carcinoma). The description is as above. The method, boiled down: as §1
For assay [10], the system named is SJRH30 (Rhabdomyosarcoma). The description is as above. A digest of the protocol: as §1
In assay [11] the test system is RMG-I (Ovarian Carcinoma). The assay is described as above. A digest of the protocol:
as §1

Assay [12] relates to SK-MM-2 (Plasma Cell Myeloma). Described as above. The method, boiled down:
as §1

Assay [13] relates to PANC-02-03 (Pancreatic Carcinoma). The description is as above. The method, boiled down:
as §1

Assay [14] concerns NKM-1 (Acute Myeloid Leukemia). The description is as above. The method, boiled down:
as §1

Assay [15] relates to SW684 (Other Solid Carcinomas). Described as above. A digest of the protocol:
as §1

The subject of assay [16] is NCI-H810 (Non-Small Cell Lung Carcinoma). Described as above. The method, boiled down:
as §1

The test system of assay [17] is HuO-3N1 (Osteosarcoma). The description is as above. The method, boiled down: as §1
Assay [18] deals with FLO-1 (Esophageal Adenocarcinoma). In words: combination Emax (second highest fraction inhibited in the dose matrix, 72 h); higher = more inhibition; extreme values may be limits of the assay. The method, boiled down: as §1
Assay [19] concerns LAMA-84 (Chronic Myelogenous Leukemia). The assay is described as above. The method, boiled down:
as §1

The test system of assay [20] is HuO-3N1 (Osteosarcoma). Described as above. A digest of the protocol: as §1

SMILES strings stand for the structures.
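For Bliss excess, mean over the matrix in this document: after 72 h of two-drug dosing.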

Turning to `CS(=O)(=O)CCNCc1ccc(-c2ccc3ncnc(Nc4ccc(OCc5cccc(F)c5)c(Cl)c4)c3c2)o1` [Lapatinib] + NC1(c2ccc(-c3nc4ccn5c(=O)[nH]nc5c4cc3-c3ccccc3)cc2)CCC1 [MK-2206] (first compound max 10 µM, 7x7, partner max 10 µM), the Bliss excess in assay [1] is -0.0401; in assay [2] it was -0.0085; in assay [3], -0.131; in [4], 0.0221; in [5] it was -0.046; in [6], -0.0251. For the same compound, the Bliss excess in assay [7] was -0.0343; in [8], -0.016; in assay [9] it was -0.0225; in assay [10], 0.0103; in assay [11] it was -0.0219; in assay [12], 0.0329. The Bliss excess in [13] was -0.0011; in assay [14], 0.0174; in [15], 0.0223; in assay [16], -0.0152; in assay [17] it was -0.0437. Moreover, the entries for the “combination Emax” value in assay [18], in [19] and in [20] were 0.793, 0.642 and 0.869, respectively.

The values are drawn from the supplement of paper PMC11061612.
